system: SCLC cells; format: cell-based, human

Compound | effect on proliferation / rate of growth of SCLC cells
CN1CCCC1c1cccnc1 (stereo not drawn) [nicotine] | increase the rate of growth
alpha-bungarotoxin | slow down or suppress proliferation
alpha-cobratoxin | slow down or suppress proliferation

Reference: patent publication US20020150975A1 (priority 2000, published 2002)
